Laboratory results reported in the supplement of paper PMC10307832.

Tests used:
Test in all cases: relative viability (nuclei count vs DMSO), 5 days (fraction); higher = more cells survive
[1] = system: NCI-H1437
Outline: (§1)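 Each reported value is a median over duplicate plates. It expresses relative viability: treated-well nuclei count divided by vehicle-well nuclei count. Lung cancer cell lines in 1536-well plates were dosed by pin tool a day after seeding, alone with one drug or with a fixed anchor-drug dose plus five library-drug doses (not always all listed) in √10 steps, and nuclei were counted after 5 days.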

[2] = system: NCI-H1299
Outline: as §1

[3] = system: SW 1573
Outline: as §1

[4] = system: A549
Outline: as §1

[5] = system: IA-LM
Outline: as §1

[6] = system: Calu-6
Outline: as §1

[7] = system: ABC-1
Outline: as §1

[8] = system: NCI-H1703
Outline: as §1

[9] = system: SK-MES-1
Outline: as §1

[10] = system: COR-L23
Outline: as §1

[11] = system: NCI-H1651
Outline: as §1

[12] = system: EBC-1
Outline: as §1

SMILES: O=c1cc(-c2cccc3c2Sc2ccccc2S3)oc(N2CCOCC2)c1 + CS(=O)(=O)CCNCc1ccc(-c2ccc3ncnc(Nc4ccc(OCc5cccc(F)c5)c(Cl)c4)c3c2)o1 [Lapatinib] (partner 2 µM)
- relative viability ([1]; first compound 0.08 µM): 0.782
- relative viability ([1]; first compound 0.253 µM): 1.2
- relative viability ([1]; first compound 0.8 µM): 0.817
- relative viability ([1]; first compound 2.53 µM): 0.751
- relative viability ([1]; first compound 8 µM): 1
- relative viability ([2]; first compound 0.08 µM): 0.972
- relative viability ([2]; first compound 0.253 µM): 1
- relative viability ([2]; first compound 0.8 µM): 0.997
- relative viability ([2]; first compound 2.53 µM): 0.975
- relative viability ([2]; first compound 8 µM): 0.96
- relative viability ([3]; first compound 0.08 µM): 1.02
- relative viability ([3]; first compound 0.253 µM): 1.28
- relative viability ([3]; first compound 0.8 µM): 0.935
- relative viability ([3]; first compound 2.53 µM): 1.05
- relative viability ([3]; first compound 8 µM): 1.24
- relative viability ([4]; first compound 0.08 µM): 1.04
- relative viability ([4]; first compound 0.253 µM): 1.23
- relative viability ([4]; first compound 0.8 µM): 1.19
- relative viability ([4]; first compound 2.53 µM): 0.87
- relative viability ([4]; first compound 8 µM): 0.995
- relative viability ([5]; first compound 0.08 µM): 1.16
- relative viability ([5]; first compound 0.253 µM): 0.806
- relative viability ([5]; first compound 0.8 µM): 0.693
- relative viability ([5]; first compound 8 µM): 1.2
- relative viability ([6]; first compound 0.08 µM): 1.16
- relative viability ([6]; first compound 0.253 µM): 1.16
- relative viability ([6]; first compound 0.8 µM): 1.03
- relative viability ([6]; first compound 2.53 µM): 1.07
- relative viability ([6]; first compound 8 µM): 1.15
- relative viability ([7]; first compound 0.08 µM): 1.04
- relative viability ([7]; first compound 0.253 µM): 1.2
- relative viability ([7]; first compound 0.8 µM): 1.28
- relative viability ([7]; first compound 2.53 µM): 0.991
- relative viability ([7]; first compound 8 µM): 1.41
- relative viability ([8]; first compound 0.08 µM): 0.886
- relative viability ([8]; first compound 0.253 µM): 1.45
- relative viability ([8]; first compound 0.8 µM): 0.94
- relative viability ([8]; first compound 2.53 µM): 1.1
- relative viability ([8]; first compound 8 µM): 0.971
- relative viability ([9]; first compound 0.08 µM): 0.487
- relative viability ([9]; first compound 0.253 µM): 0.562
- relative viability ([9]; first compound 0.8 µM): 0.445
- relative viability ([9]; first compound 2.53 µM): 0.483
- relative viability ([9]; first compound 8 µM): 0.439
- relative viability ([10]; first compound 0.08 µM): 1.1
- relative viability ([10]; first compound 0.253 µM): 1.67
- relative viability ([10]; first compound 0.8 µM): 0.962
- relative viability ([10]; first compound 2.53 µM): 0.836
- relative viability ([10]; first compound 8 µM): 1.09
- relative viability ([11]; first compound 0.08 µM): 0.866
- relative viability ([11]; first compound 0.253 µM): 1.06
- relative viability ([11]; first compound 0.8 µM): 0.711
- relative viability ([11]; first compound 2.53 µM): 0.703
- relative viability ([11]; first compound 8 µM): 0.953
- relative viability ([12]; first compound 0.08 µM): 0.201
- relative viability ([12]; first compound 0.253 µM): 0.191
- relative viability ([12]; first compound 0.8 µM): 0.196
- relative viability ([12]; first compound 2.53 µM): 0.204
- relative viability ([12]; first compound 8 µM): 0.202

SMILES: CCN(CC)CCCCNc1ncc2cc(-c3cc(OC)cc(OC)c3)c(NC(=O)NC(C)(C)C)nc2n1 + Cc1nc(NC(=O)N2CCC[C@H]2C(N)=O)sc1-c1ccnc(C(C)(C)C(F)(F)F)c1 [Alpelisib] (partner 2 µM)
- relative viability ([1]; first compound 0.01 µM): 1.23
- relative viability ([1]; first compound 0.03162 µM): 0.944
- relative viability ([1]; first compound 0.1 µM): 1
- relative viability ([1]; first compound 0.3162 µM): 1.03
- relative viability ([1]; first compound 1 µM): 0.947
- relative viability ([2]; first compound 0.01 µM): 1.12
- relative viability ([2]; first compound 0.03162 µM): 1.12
- relative viability ([2]; first compound 0.1 µM): 1.08
- relative viability ([2]; first compound 0.3162 µM): 1.04
- relative viability ([2]; first compound 1 µM): 1.04
- relative viability ([3]; first compound 0.01 µM): 0.727
- relative viability ([3]; first compound 0.03162 µM): 0.874
- relative viability ([3]; first compound 0.1 µM): 0.929
- relative viability ([3]; first compound 0.3162 µM): 0.796
- relative viability ([3]; first compound 1 µM): 0.782
- relative viability ([4]; first compound 0.01 µM): 0.726
- relative viability ([4]; first compound 0.03162 µM): 0.801
- relative viability ([4]; first compound 0.1 µM): 0.985
- relative viability ([4]; first compound 0.3162 µM): 0.828
- relative viability ([4]; first compound 1 µM): 0.57
- relative viability ([5]; first compound 0.01 µM): 0.62
- relative viability ([5]; first compound 0.03162 µM): 0.659
- relative viability ([5]; first compound 0.1 µM): 0.672
- relative viability ([5]; first compound 0.3162 µM): 0.836
- relative viability ([5]; first compound 1 µM): 0.597
- relative viability ([6]; first compound 0.01 µM): 1
- relative viability ([6]; first compound 0.03162 µM): 0.996
- relative viability ([6]; first compound 0.1 µM): 0.868
- relative viability ([6]; first compound 0.3162 µM): 1.09
- relative viability ([6]; first compound 1 µM): 1.01
- relative viability ([7]; first compound 0.01 µM): 1.2
- relative viability ([7]; first compound 0.03162 µM): 0.997
- relative viability ([7]; first compound 0.1 µM): 1.06
- relative viability ([7]; first compound 0.3162 µM): 1.47
- relative viability ([7]; first compound 1 µM): 1.13
- relative viability ([8]; first compound 0.01 µM): 0.262
- relative viability ([8]; first compound 0.1 µM): 0.397
- relative viability ([8]; first compound 0.3162 µM): 0.45
- relative viability ([8]; first compound 1 µM): 0.292
- relative viability ([9]; first compound 0.01 µM): 1.12
- relative viability ([9]; first compound 0.03162 µM): 0.934
- relative viability ([9]; first compound 0.1 µM): 0.877
- relative viability ([9]; first compound 0.3162 µM): 1.03
- relative viability ([9]; first compound 1 µM): 0.849
- relative viability ([10]; first compound 0.01 µM): 0.819
- relative viability ([10]; first compound 0.03162 µM): 1.02
- relative viability ([10]; first compound 0.1 µM): 1.19
- relative viability ([10]; first compound 0.3162 µM): 0.787
- relative viability ([10]; first compound 1 µM): 0.856
- relative viability ([11]; first compound 0.01 µM): 0.938
- relative viability ([11]; first compound 0.03162 µM): 1
- relative viability ([11]; first compound 0.1 µM): 1.1
- relative viability ([11]; first compound 0.3162 µM): 1.13
- relative viability ([11]; first compound 1 µM): 0.844
- relative viability ([12]; first compound 0.01 µM): 0.831
- relative viability ([12]; first compound 0.03162 µM): 0.887
- relative viability ([12]; first compound 0.1 µM): 0.965
- relative viability ([12]; first compound 0.3162 µM): 0.918
- relative viability ([12]; first compound 1 µM): 0.664
